Results on one molecule are retold here after article PMC10298474 (2023).

The test concerns Cy5-labeled 16 bp WC-helix (RNA, duplex) AGAGGGAAUUCCCUCU
As to the kind of experiment: microscale thermophoresis. As to conditions: 100 mM K+, 2 mM Mg2+; 10 mM HEPES pH 7.5, 0.5 mM EDTA, 0.1% Tween 20, 25 °C; 50 nM RNA; single-site fit. For orientation: Microscale thermophoresis detects binding through changes in fluorescence in a small temperature gradient.

The KD is the free concentration of one partner at which half of the binding sites on the other are occupied at equilibrium, for simple one-to-one binding. Low readings indicate tighter binding, high ones weaker binding.

Turning to `C[C@@H]1O[C@@H](OC[C@H]2O[C@@H](Oc3c(-c4ccc(O)c(O)c4)oc4cc(O)cc(O)c4c3=O)[C@H](O)[C@@H](O)[C@@H]2O)[C@H](O)[C@H](O)[C@H]1O`, the KD was under 100 pM.
